Reference: PMC6167311, “Structure of the NDH-2 – HQNO inhibited complex provides molecular insight into quinone-binding site inhibitors” (Biochimica et Biophysica Acta, 2018)

Columns and labels:
Format in all cases: biochemical
[1] = target: T1, NDH-2 (type II NADH:quinone oxidoreductase) (Caldalkalibacillus thermarum, UniProt F5L3B8); test: co-crystal structure at […] Å; IC50 in NADH:menadione oxidoreduction assay ([…] menadione) with purified enzyme
T1 construct: gene CathTA2_0279

[2] = target: T2, NDH-2 (type II NADH:quinone oxidoreductase) (Caldalkalibacillus thermarum, UniProt F5L3B8, I379E); test: NADH:menadione oxidoreduction assay, […] menadione, […] NADH
T2 construct: gene CathTA2_0279
T2 sequence (F5L3B8 entry or part of it I379E): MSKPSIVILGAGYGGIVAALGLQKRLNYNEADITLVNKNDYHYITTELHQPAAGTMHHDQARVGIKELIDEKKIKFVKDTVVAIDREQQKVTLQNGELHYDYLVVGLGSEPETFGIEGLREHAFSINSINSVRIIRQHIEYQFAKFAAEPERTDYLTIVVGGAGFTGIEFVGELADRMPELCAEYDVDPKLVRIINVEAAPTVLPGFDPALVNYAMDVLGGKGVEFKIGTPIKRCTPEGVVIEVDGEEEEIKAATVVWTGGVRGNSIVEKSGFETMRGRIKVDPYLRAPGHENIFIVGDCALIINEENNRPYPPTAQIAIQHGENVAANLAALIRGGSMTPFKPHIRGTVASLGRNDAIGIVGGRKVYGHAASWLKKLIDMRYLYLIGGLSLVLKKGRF

[3] = target: T1, NDH-2 (type II NADH:quinone oxidoreductase); test: NADH:menadione oxidoreduction turnover of purified enzyme ([…] s^−[…] at […] MD)

T1 sequence (F5L3B8 entry or part of it): as the sequence (F5L3B8 entry or part of it I379E) above

| SMILES | IC50 [1] [µM] | IC50 [2] [µM] | NADH:menadione oxidoreduction turnover of purified enzyme (959.3 s^-1 at 400 μM) [3] [s⁻¹] |
| --- | --- | --- | --- |
| CCCCCCCc1cc(O)c2ccccc2[n+]1[O-] [compound 1, 2-heptyl-4-hydroxyquinoline-N-oxide] | 7.3 ± 1.2 | 54.3 ± 1.2 |  |
| CC1=CC(=O)c2ccccc2C1=O [menadione] |  |  | 959.3 |
